How the values were obtained:
Assay type in all cases: in vivo
[1] = test system: yellow fever mosquito (Aedes aegypti); assay: whole plant or invertebrate; settings: 48 h, larval mortality after 2 days, read-out: mortality in comparison with untreated controls
Description: For evaluating control of yellow fever mosquito (Aedes aegypti) the test unit consisted of 96-well-microtiter plates containing 200 μl of tap water per well and 5-15 freshly hatched A. aegypti larvae.
The active compounds were formulated using a solution containing 75% (v/v) water and 25% (v/v) DMSO. Different concentrations of formulated compounds or mixtures were sprayed onto the insect diet at 2.5 μl, using a custom-built micro atomizer, at two replications.
After application, microtiter plates were incubated at 28±1° C., 80±5% RH for 2 days. Larval mortality was then visually assessed.

[2] = test system: boll weevil (Anthonomus grandis); assay: Boll weevil (Anthonomus grandis), microtiter plate insect diet test; settings: 120 h, egg and larval mortality after 5 days, read-out: mortality in comparison with untreated controls
Description: For evaluating control of boll weevil (Anthonomus grandis) the test unit consisted of 96-well-microtiter plates containing an insect diet and 5-10 A. grandis eggs. The compounds were formulated using a solution containing 75% v/v water and 25% v/v DMSO. Different concentrations of formulated compounds were sprayed onto the insect diet at 5 μl, using a custom-built micro atomizer, at two replications.
After application, microtiter plates were incubated at about 25±1° C. and about 75±5% relative humidity for 5 days. Egg and larval mortality was then visually assessed.

[3] = test system: diamond back moth (Plutella xylostella); assay: Diamond back moth (Plutella xylostella), cabbage leaf disc dip test; settings: foliar, 72 hours after treatment, 3rd instar larvae, read-out: mortality in comparison with untreated controls
Description: The active compound was dissolved at the desired concentration in a mixture of 1:1 (vol:vol) distilled water:acetone. Surfactant (Kinetic) was added at a rate of 0.01% (vol/vol). The test solution was prepared at the day of use. Cabbage leaf discs (60 mm in diameter) were dipped in test solution and air-dried. Treated leaves were placed in petri dishes lined with moistened filter paper and inoculated with ten 3rd instar larvae. Mortality was recorded 72 hours after treatment. Feeding damages were also recorded using a scale of 0-100%.

[4] = test system: orchid thrips (Dichromothrips corbetti); assay: Orchid thrips (Dichromothrips corbetti), floral-immersion technique; settings: 72 hours after treatment, adult thrips, read-out: mortality in comparison with untreated controls
Description: Dichromothrips corbetti adults used for bioassay were obtained from a colony maintained continuously under laboratory conditions. For testing purposes, the test compound was diluted in a 1:1 mixture of acetone:water (vol:vol), plus Kinetic at a rate of 0.01% v/v.
Thrips potency of each compound was evaluated by using a floral-immersion technique. Each orchid petal was dipped into treatment solution and allowed to dry in Petri dishes. Treated petals were placed into individual re-sealable plastic along with about 20 adult thrips. All test arenas were held under dark condition and a temperature of about 28° C. for duration of the assay. The percent mortality was recorded 72 hours after treatment.

[5] = test system: tobacco budworm (Heliothis virescens); assay: Tobacco budworm (Heliothis virescens), microtiter plate insect diet test; settings: 120 h, egg and larval mortality after 5 days, read-out: mortality in comparison with untreated controls
Description: For evaluating control of tobacco budworm (Heliothis virescens) the test unit consisted of 96-well-microtiter plates containing an insect diet and 15-25 H. virescens eggs. The compounds were formulated using a solution containing 75% v/v water and 25% v/v DMSO. Different concentrations of formulated compounds were sprayed onto the insect diet at 10 μl, using a custom-built micro atomizer, at two replications.
After application, microtiter plates were incubated at about 28±1° C. and about 80±5% relative humidity for 5 days. Egg and larval mortality was then visually assessed.

[6] = test system: green peach aphid (Myzus persicae); assay: Green peach aphid (Myzus persicae), systemic artificial diet/membrane test; settings: 72 h, aphid mortality after 3 days, read-out: mortality in comparison with untreated controls
Source text: For evaluating control of green peach aphid (Myzus persicae) through systemic means the test unit consisted of 96-well-microtiter plates containing liquid artificial diet under an artificial membrane.
The compounds were formulated using a solution containing 75% v/v water and 25% v/v DMSO. Different concentrations of formulated compounds were pipetted into the aphid diet, using a custom-built pipette, at two replications.
After application, 5-8 adult aphids were placed on the artificial membrane inside the microtiter plate wells. The aphids were then allowed to suck on the treated aphid diet and incubated at about 23 ±1° C. and about 50 ±5% relative humidity for 3 days. Aphid mortality and fecundity was then visually assessed.

[7] = test system: southern armyworm (Spodoptera eridania), 2nd instar larvae; assay: Southern armyworm (Spodoptera eridania), 2nd instar larvae, sprayed lima bean plants; settings: 96 h, 4 days after treatment, read-out: mortality in comparison with untreated controls
Source text: The active compounds were formulated by a Tecan liquid handler in 100% cyclohexanone as a 10′000 ppm solution supplied in tubes. The 10′000 ppm solution was serially diluted in 100% cyclohexanone to make interim solutions. These served as stock solutions for which final dilutions were made by the Tecan in 50% acetone:50% water (v/v) into 10 or 20m1 glass vials. A nonionic surfactant (Kinetic®) was included in the solution at a volume of 0.01% (v/v). The vials were then inserted into an automated electrostatic sprayer equipped with an atomizing nozzle for application to plants/insects. Lima bean plants (variety Sieva) were grown 2 plants to a pot and selected for treatment at the 1st true leaf stage. Test solutions were sprayed onto the foliage by an automated electrostatic plant sprayer equipped with an atomizing spray nozzle. The plants were dried in the sprayer fume hood and then removed from the sprayer. Each pot was placed into perforated plastic bags with a zip closure. Ten to 11 armyworm larvae were placed into the bag and the bags zipped closed. Test plants were maintained in a growth room at about 25° C. and about 20-40% relative humidity for 4 days, avoiding direct exposure to fluorescent light (14:10 light:dark photo-period) to prevent trapping of heat inside the bags. Mortality and reduced feeding were assessed 4 days after treatment, compared to untreated control plants.

[8] = test system: rice green leafhopper (Nephotettix virescens); assay: Rice green leafhopper (Nephotettix virescens), sprayed rice seedlings; settings: after 72 hours, adults, read-out: mortality in comparison with untreated controls
Description: Four to five-week old rice seedlings with cut upper leaf portion were cleaned and washed 24 hours before spraying. The active compounds were formulated in 1:1 acetone:water (vol:vol), and 0.01% vol/vol surfactant (Kinetic) was added. Potted rice seedlings were sprayed with 5-6 ml test solution, air dried, covered with Mylar cages and inoculated with 10 adults. Treated rice plants were kept at about 28-29° C. and relative humidity of about 50-60%. Percent mortality was recorded after 72 hours.

FC(F)(F)c1cc(C(F)(F)F)c2onc(NCc3ncnn3-c3ncccn3)c2c1 [I-2, N-[(2-pyrimidin-2-yl-1,2,4-triazol-3-yl)methyl]-5,7-bis(trifluoromethyl)-1,2-benzoxazol-3-amine]
≥ 50%: mortality at 2500 ppm [1] | mortality at 2500 ppm [2] | mortality at 300 ppm [3] | mortality at 300 ppm [4]

CC(Nc1c(C(F)(F)F)c(C(F)(F)C(F)(F)F)nn1C)c1ncnn1-c1ncccn1 (stereo not drawn) [I-7, 2-methyl-5-(1,1,2,2,2-pentafluoroethyl)-N-[1-(2-pyrimidin-2-yl-1,2,4-triazol-3-yl)ethyl]-4-(trifluoromethyl)pyrazol-3-amine]
≥ 50%: mortality at 2500 ppm [5] | mortality at 300 ppm [3] | mortality at 300 ppm [4]

CC(Nc1nsc2c(Cl)cc(Cl)cc12)c1ncnn1-c1ncccn1 (stereo not drawn) [I-5, 5,7-dichloro-N-[1-(2-pyrimidin-2-yl-1,2,4-triazol-3-yl)ethyl]-1,2-benzothiazol-3-amine]
≥ 50%: mortality at 2500 ppm [1] | mortality at 2500 ppm [2] | mortality at 2500 ppm [5] | mortality at 2500 ppm [6] | mortality at 300 ppm [7]

CC(Nc1nn(C)c2ccc(C(F)(F)F)cc12)c1ncnn1-c1ncccn1 (stereo not drawn) [I-4, 1-methyl-N-[1-(2-pyrimidin-2-yl-1,2,4-triazol-3-yl)ethyl]-5-(trifluoromethyl)indazol-3-amine]
≥ 50%: mortality at 2500 ppm [1] | mortality at 2500 ppm [2] | mortality at 2500 ppm [5]

CC(Nc1noc2ncc(C(F)(F)F)cc12)c1ncnn1-c1ncccn1 (stereo not drawn) [I-3, N-[1-(2-pyrimidin-2-yl-1,2,4-triazol-3-yl)ethyl]-5-(trifluoromethyl)isoxazolo[5,4-b]pyridin-3-amine]
≥ 50%: mortality at 2500 ppm [2] | mortality at 2500 ppm [6]

CC(NC1=NS(=O)(=O)c2c(Cl)cc(Cl)cc21)c1ncnn1-c1ncccn1 (stereo not drawn) [I-9, 5,7-dichloro-1,1-dioxo-N-[1-(2-pyrimidin-2-yl-1,2,4-triazol-3-yl)ethyl]-1,2-benzothiazol-3-amine]
≥ 50%: mortality at 2500 ppm [2] | mortality at 2500 ppm [6]

CC(c1ncnn1-c1ncccn1)N(CC1CC1)c1nnc2c(Cl)cc(C(F)(F)F)cn12 (stereo not drawn) [I-6, 8-chloro-N-(cyclopropylmethyl)-N-[1-(2-pyrimidin-2-yl-1,2,4-triazol-3-yl)ethyl]-6-(trifluoromethyl)-[1,2,4]triazolo[4,3-a]pyridin-3-amine]
≥ 50%: mortality at 2500 ppm [6]

CCC(Nc1noc2c(C(F)(F)F)cc(C(F)(F)F)cc12)c1ncnn1-c1ncccn1 (stereo not drawn) [I-28, N-[1-(2-pyrimidin-2-yl-1,2,4-triazol-3-yl)propyl]-5,7-bis(trifluoromethyl)-1,2-benzoxazol-3-amine]
≥ 50%: mortality at 2500 ppm [2] | mortality at 2500 ppm [5] | mortality at 2500 ppm [6] | mortality at 300 ppm [3] | mortality at 300 ppm [4]

CC(Nc1noc2c(C(F)(F)F)cc(C(F)(F)F)cc12)c1ncnn1-c1ncccn1 (stereo not drawn) [I-1, N-[1-(2-pyrimidin-2-yl-1,2,4-triazol-3-yl)ethyl]-5,7-bis(trifluoromethyl)-1,2-benzoxazol-3-amine]
≥ 50%: mortality at 2500 ppm [1] | mortality at 2500 ppm [2] | mortality at 2500 ppm [5] | mortality at 2500 ppm [6]

CC(Nc1n[s+]([O-])c2c(Cl)cc(Cl)cc12)c1ncnn1-c1ncccn1 (stereo not drawn) [I-8, 5,7-dichloro-1-oxo-N-[1-(2-pyrimidin-2-yl-1,2,4-triazol-3-yl)ethyl]-1,2-benzothiazol-3-amine]
≥ 50%: mortality at 2500 ppm [2] | mortality at 2500 ppm [6] | mortality at 300 ppm [4] | mortality at 300 ppm [8]

From patent publication US20230180754A1, “HETEROCYCLIC COMPOUNDS FOR THE CONTROL OF INVERTEBRATE PESTS” (priority 2020, published 2023)
